Measured values taken from patent US20260283966A1, “PROTEIN PARTICLES AND METHODS OF MAKING AND USING THE SAME” (Dairy Management Inc., priority 2023, published 2026).

Test: ABTS radical scavenging capacity
Assay type: biochemical
Settings: 0.05 mg mL^−1, all treatments
Method: ABTS radical scavenging capacity was measured according to the previously published protocol with some modifications (Dong et al., 2016). The modifications are as follow: samples were dissolved in phosphate buffer (pH 7.4) to a concentration of 0.05 mg mL^−1. Next, a 200 μl aliquot of the sample was mixed with 20 μl of the ABTS working solution and the mixture was stored in dark for 20 min at room temperature (~25° C.).

N[C@@H](Cc1c[nH]c2ccccc12)C(=O)O [Trp, L-Tryptophan]
relative ABTS radical scavenging capacity: strong relative ABTS radical scavenging capacity and was not influenced by treatments
